In brackets after ≈: the same amount, converted by molar mass. Where two headings read alike, the source gives them in different places.
Tests used:
[1] = test system: M. hyosynoviae ATCC 25591; assay: MIC against Mycoplasma in vitro (Friis broth with agarose); assay type: cell-based; conditions: 144 h; M. hyosynoviae ATCC 25591; 6 days at 37° C; read-out: MIC
Bord. bronchiseptica B09 = assay: MIC against veterinary bacteria in vitro (Diagnostic Sensitivity Test Agar); conditions: Bordetella bronchiseptica, B09, 18 h
Method: (§2) The activity of the normonyl derivatives of the Examples against various veterinarily important bacteria, was assayed in vitro using two-fold serial dilutions in Diagnostic Sensitivity Test Agar inoculated with 10^4 organisms.

[2] = test system: Corynebacterium xerosis 9755; assay: MIC against human bacteria in vitro (nutrient agar, chocolated horse blood); assay type: cell-based; conditions: human; Corynebacterium xerosis 9755; 18 hours at 37° C; read-out: MIC
Outline: (§1)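 In vitro agar-dilution testing: drug dilutions prepared in nutrient medium with chocolated horse blood (5%).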

[3] = test system: Haemophilus influenzae Wy21; assay: as above; assay type: cell-based; conditions: human; Haemophilus influenzae Wy21; 18 hours at 37° C; read-out: MIC
Outline: as §1

P. mirabilis 889 = assay: as above; assay type: cell-based; conditions: Proteus mirabilis; human; P. mirabilis 889; 18 hours at 37° C; read-out: MIC
Outline: as §1

Bacillus subtilis 6633 = assay: as above; assay type: cell-based; conditions: human; Bacillus subtilis 6633; 18 hours at 37° C; read-out: MIC
Outline: as §1

Strep. spp. 64/848-C = assay: as above; assay type: cell-based; conditions: human; Strep. spp. 64/848-C; 18 hours at 37° C; read-out: MIC
Outline: as §1

Staph. aureus Oxford = assay: as above; assay type: cell-based; conditions: Staphylococcus aureus; human; Staph. aureus Oxford; 18 hours at 37° C; read-out: MIC
Outline: as §1

Staph. aureus Russell = assay: as above; assay type: cell-based; conditions: Staphylococcus aureus; human; Staph. aureus Russell; 18 hours at 37° C; read-out: MIC
Outline: as §1

[4] = test system: Pasteurella multocida 1633; assay: as above; assay type: cell-based; conditions: human; Pasteurella multocida 1633; 18 hours at 37° C; read-out: MIC
Outline: as §1

Strep. faecalis I = assay: as above; assay type: cell-based; conditions: Enterococcus faecalis; human; Strep. faecalis I; 18 hours at 37° C; read-out: MIC
Outline: as §1

Strep. agalactiae 2788-B = assay: as above; assay type: cell-based; conditions: Streptococcus agalactiae; human; Strep. agalactiae 2788-B; 18 hours at 37° C; read-out: MIC
Outline: as §1

[5] = test system: Ps. aeruginosa NCTC 10662; assay: as above; assay type: cell-based; conditions: Pseudomonas aeruginosa, NCTC10662; human; Ps. aeruginosa NCTC 10662; 18 hours at 37° C; read-out: MIC
Outline: as §1

[6] = test system: Strep. pyogenes R80/421-A; assay: as above; assay type: cell-based; conditions: Streptococcus pyogenes; human; Strep. pyogenes R80/421-A; 18 hours at 37° C; read-out: MIC
Outline: as §1

E. coli ESS = assay: as above; assay type: cell-based; conditions: Escherichia coli; human; E. coli ESS; 18 hours at 37° C; read-out: MIC
Outline: as §1

Staph. aureus W2827 = assay: as above; assay type: cell-based; conditions: Staphylococcus aureus; human; Staph. aureus W2827; 18 hours at 37° C; read-out: MIC
Outline: as §1

E. coli NCTC 10418 [7] = assay: as above; assay type: cell-based; conditions: Escherichia coli, NCTC10418; human; E. coli NCTC 10418; 18 hours at 37° C; read-out: MIC
Outline: as §1

K. aerogenes A = assay: as above; assay type: cell-based; conditions: Klebsiella aerogenes; human; K. aerogenes A; 18 hours at 37° C; read-out: MIC
Outline: as §1

Sarcina lutea 8340 = assay: as above; assay type: cell-based; conditions: Micrococcus luteus; human; Sarcina lutea 8340; 18 hours at 37° C; read-out: MIC
Outline: as §1

[8] = test system: M. hyopneumoniae ATCC 25095; assay: MIC against Mycoplasma in vitro (Friis broth with agarose); assay type: cell-based; conditions: Mesomycoplasma hyopneumoniae, ATCC25095, 144 h
E. coli E1 = assay: MIC against veterinary bacteria in vitro (Diagnostic Sensitivity Test Agar); conditions: Escherichia coli, E1, 18 h
Method: as §2

Strep. uberis SPU1 = assay: as above; conditions: Streptococcus uberis, SPU1, 18 h
Method: as §2

[9] = test system: Erysipelothrix rhusiopathiae NCTC 8163; assay: as above; conditions: NCTC8163, 18 h
Method: as §2

Strep. agalactiae SPA1 = assay: as above; conditions: Streptococcus agalactiae, SPA1, 18 h
Method: as §2

S. dublin S7 = assay: as above; conditions: Salmonella enterica, S7, 18 h
Method: as §2

[10] = test system: M. hyopneumoniae NCTC 101101; assay: MIC against Mycoplasma in vitro (Friis broth with agarose); assay type: cell-based; conditions: Mesomycoplasma hyopneumoniae, NCTC101101, 144 h
M. hyopneumoniae TAM 6N = assay: as above; assay type: cell-based; conditions: Mesomycoplasma hyopneumoniae, TAM6N, 144 h; M. hyopneumoniae TAM 6N; 6 days at 37° C; read-out: MIC
[11] = test system: M. hyopneumoniae J2206/183^b; assay: as above; assay type: cell-based; conditions: Mesomycoplasma hyopneumoniae, 144 h; M. hyopneumoniae J2206/183^b; 6 days at 37° C; read-out: MIC
[12] = test system: Staph. aureus 152 (pen. sens); assay: MIC against veterinary bacteria in vitro (Diagnostic Sensitivity Test Agar); conditions: Staphylococcus aureus, 18 h
Method: as §2

M. bovis NCTC 10131 = assay: microbe, parasite or virus in culture; assay type: cell-based; conditions: NCTC10131, 144 h
[13] = test system: Corynebacterium pyogenes CY1; assay: MIC against veterinary bacteria in vitro (Diagnostic Sensitivity Test Agar); conditions: CY1, 18 h
Method: as §2

M. hyopneumoniae UCD 1 = assay: MIC against Mycoplasma in vitro (Friis broth with agarose); assay type: cell-based; conditions: Mesomycoplasma hyopneumoniae, UCD1, 144 h
E. coli NCTC 10418 [14] = assay: MIC against veterinary bacteria in vitro (Diagnostic Sensitivity Test Agar); conditions: Escherichia coli, NCTC10418, 18 h
Method: as §2

Row | SMILES | MIC [1] [µg/mL] | MIC (Bord. bronchiseptica B09) [µg/mL] | MIC [2] [µg/mL] | MIC [3] [µg/mL] | MIC (P. mirabilis 889) [µg/mL] | MIC (Bacillus subtilis 6633) [µg/mL] | MIC (Strep. spp. 64/848-C) [µg/mL] | MIC (Staph. aureus Oxford) [µg/mL] | MIC (Staph. aureus Russell) [µg/mL] | MIC [4] [µg/mL] | MIC (Strep. faecalis I) [µg/mL] | MIC (Strep. agalactiae 2788-B) [µg/mL] | MIC [5] [µg/mL] | MIC [6] [µg/mL] | MIC (E. coli ESS) [µg/mL] | MIC (Staph. aureus W2827) [µg/mL] | MIC (E. coli NCTC 10418 [7]) [µg/mL] | MIC (K. aerogenes A) [µg/mL] | MIC (Sarcina lutea 8340) [µg/mL] | MIC (E. coli E1) [µg/mL] | further results
1 | CC(=Cc1nc(-c2ccc([N+](=O)[O-])cc2)no1)CC1OCC(CC2OC2C(C)C(C)O)C(O)C1O (stereo not drawn) [Example 16, 5-(1-Normon-2-yl)-3-(4-nitrophenyl)-1,2,4-oxadiazole] | 5 (≈ 10.2 µM) | 10 (≈ 20.4 µM) | > 64 | 4 (≈ 8.17 µM) | > 64 | 16 (≈ 32.7 µM) | 32 (≈ 65.4 µM) | 16 (≈ 32.7 µM) | 16 (≈ 32.7 µM) | 32 (≈ 65.4 µM) | > 64 | 32 (≈ 65.4 µM) | > 64 | 32 (≈ 65.4 µM) | 8 (≈ 16.3 µM) | 16 (≈ 32.7 µM) | > 64 | > 64 | > 64 | > 80 | MIC [8]: 0.1 µg/mL (≈ 0.204 µM); MIC (Strep. uberis SPU1): 2.5 µg/mL (≈ 5.11 µM); MIC [9]: 10 µg/mL (≈ 20.4 µM); MIC (Strep. agalactiae SPA1): 5 µg/mL (≈ 10.2 µM); MIC (S. dublin S7): > 80 µg/mL; MIC [10]: 1 µg/mL (≈ 2.04 µM); MIC (M. hyopneumoniae TAM 6N): 1 µg/mL (≈ 2.04 µM); MIC [11]: 0.5 µg/mL (≈ 1.02 µM); MIC [12]: 2.5 µg/mL (≈ 5.11 µM); MIC (M. bovis NCTC 10131): 0.25 µg/mL (≈ 0.511 µM); MIC [13]: > 80 µg/mL; MIC (M. hyopneumoniae UCD 1): 0.5 µg/mL (≈ 1.02 µM); MIC (E. coli NCTC 10418 [14]): > 80 µg/mL
2 | CC(=Cc1noc(-c2ccccc2)n1)CC1OCC(CC2OC2C(C)C(C)O)C(O)C1O (stereo not drawn) [Example 17, 3-(1-Normon-2-yl)-5-phenyl-1,2,4-oxadiazole] | 1 (≈ 2.25 µM) | 40 (≈ 90 µM) | > 128 | 1 (≈ 2.25 µM) | > 128 | 2 (≈ 4.5 µM) | 8 (≈ 18 µM) | 4 (≈ 9 µM) | 4 (≈ 9 µM) | 16 (≈ 36 µM) | > 128 | 8 (≈ 18 µM) | > 128 | 4 (≈ 9 µM) | 4 (≈ 9 µM) | 4 (≈ 9 µM) | > 128 | > 128 | > 128 | > 80 | MIC ([8]; M. hyopneumoniae ATCC 25095, 6 days at 37° C, read-out: MIC): 1 µg/mL (≈ 2.25 µM); MIC (Strep. uberis SPU1): 0.625 µg/mL (≈ 1.41 µM); MIC [9]: 10 µg/mL (≈ 22.5 µM); MIC (Strep. agalactiae SPA1): 5 µg/mL (≈ 11.2 µM); MIC (S. dublin S7): > 80 µg/mL; MIC ([10]; M. hyopneumoniae NCTC 101101, 6 days at 37° C, read-out: MIC): 2.5 µg/mL (≈ 5.62 µM); MIC (M. hyopneumoniae TAM 6N): 2.5 µg/mL (≈ 5.62 µM); MIC [11]: 2.5 µg/mL (≈ 5.62 µM); MIC [12]: 1.25 µg/mL (≈ 2.81 µM); MIC (M. bovis NCTC 10131): 0.05 µg/mL (≈ 0.112 µM); MIC [13]: > 80 µg/mL; MIC (M. hyopneumoniae UCD 1): 2.5 µg/mL (≈ 5.62 µM); MIC (E. coli NCTC 10418 [14]): > 80 µg/mL

Reference: patent US4861788A, “Antibacterial 1-normon-2-yl-heterocyclic compounds” (Beecham Group plc, priority 1983, dated 1989)
